Legend:
human CHK1 = biological target: T1, human CHK1 (Homo sapiens, UniProt O14757); test: CHK1 Assay (coupled spectrophotometric); type: biochemical
T1 construct: C-terminally His-tagged full-length human CHK1 (FL-CHK1) was expressed using the baculovirus/insect cell system; made in house; host or cells: baculovirus/insect cells
T1 sequence (O14757 1-476): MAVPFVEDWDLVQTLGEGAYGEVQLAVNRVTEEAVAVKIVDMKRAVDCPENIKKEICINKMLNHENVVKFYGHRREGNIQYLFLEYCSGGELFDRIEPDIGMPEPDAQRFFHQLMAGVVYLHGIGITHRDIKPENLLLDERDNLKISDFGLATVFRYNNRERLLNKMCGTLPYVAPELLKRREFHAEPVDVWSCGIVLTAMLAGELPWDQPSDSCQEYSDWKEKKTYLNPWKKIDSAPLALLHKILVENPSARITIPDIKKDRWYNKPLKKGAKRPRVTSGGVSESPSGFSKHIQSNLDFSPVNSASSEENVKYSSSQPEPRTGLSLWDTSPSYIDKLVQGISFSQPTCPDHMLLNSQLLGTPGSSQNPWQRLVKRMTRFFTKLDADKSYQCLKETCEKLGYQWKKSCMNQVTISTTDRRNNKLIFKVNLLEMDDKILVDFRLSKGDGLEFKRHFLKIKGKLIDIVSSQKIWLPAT
Source text: C-terminally His-tagged full-length human CHK1 (FL-CHK1) was expressed using the baculovirus/insect cell system. It contains 6 histidine residues (6×His-tag) at the C-terminus of the 476 amino acid human CHK1. The protein was purified by conventional chromatographic techniques.
The production of ADP from ATP that accompanies phosphoryl transfer to the synthetic substrate peptide Syntide-2 ([…]) was coupled to oxidation of NADH using phosphoenolpyruvate (PEP) through the actions of pyruvate kinase (PK) and lactic dehydrogenase (LDH). The oxidation of NADH was monitored by following the decrease of absorbance at 340 nm (ε340=6.22 cm^−1 mM^−1) using a HP8452 spectrophotometer. Typical reaction solutions contained: […]; 0.15 mM NADH; 28 units of LDH/ml; 16 units of PK/ml; 3 mM DTT; 0.125 mM Syntide-2; 0.15 mM ATP; 25 mM MgCl2 in 50 mM TRIS, pH 7.5; and 400 mM NaCl. Assays were initiated with 10 nM of FL-CHK1. Ki values were determined by measuring initial enzyme activity in the presence of varying concentrations of test compounds. The data were analyzed using Enzyme Kinetic and Kaleidagraph software.

CDK2/cyclin A = biological target: T2, CDK2/cyclin A (Homo sapiens, UniProt P24941); test: Inhibition of CDK2/Cyclin A Retinoblastoma Kinase Activity; type: biochemical; conditions: apparent Ki
T2 construct: made in house; host or cells: CDK2: insect cells (baculovirus); cyclin A: E. coli
Procedure, shortened: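 Baculovirus-expressed CDK2 complexed with proteolyzed cyclin A, at 150 nM or 5 nM, phosphorylating an Rb fragment with 25 µM [32/33P]ATP in HEPES pH 7.4, 2% DMSO. Reactions run 20 min at 30°C, EDTA-stopped, filter-captured; apparent Ki from competitive or tight-binding competitive fits.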

CDK4/cyclin D3 = CDK4/cyclin D3 (Homo sapiens, UniProt P11802); test: Inhibition of CDK4/Cyclin D Retinoblastoma Kinase Activity; type: biochemical; conditions: apparent Ki
Procedure, shortened: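 Human CDK4/cyclin D3 (full-length or cyclin D3 1–264), insect-cell expressed, at 5 or 50 nM with His-tagged Rb 386–928 substrate, 25 μM ATP plus [32P/33P]ATP, pH 7.4, 2% DMSO, 30 °C for 20 min; tight binders used 5 nM enzyme for 60 min. Filter-captured phospho-Rb quantified by phosphorimager. Apparent Ki from competitive or tight-binding inhibition fits.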

FGFR1 tyrosine kinase = biological target: T3, FGFR1 tyrosine kinase (Homo sapiens, UniProt P11362, C488A/C584S/L457V); test: Inhibition of phosphorylated FGF receptor tyrosine kinase activity; type: biochemical; conditions: for inhibition at 1 µM: read-out: FGF % Inhib. at 1 μM
T3 construct: the cytosolic domain of FGFR1 tyrosine kinase (amino acids 456–766); made in house; host or cells: Sf9 insect cells (baculovirus)
Procedure: (§1) Inhibition of Phosphorylated FGF Receptor and LCK Tyrosine Kinase Activity
(§2) Cloning, expression and purification of the cytosolic domain of FGFR1 tyrosine kinase (amino acids 456–766) containing three amino acid substitutions (L457V, C488A, and C584S) were conducted as previously described (Mohammadi, M., Schlessinger, J., & Hubbard, S. R. (1996) Cell 86, 577–587). This domain was expressed in Sf9 insect cells using a baculovirus expression vector, and protein was purified using conventional techniques. The LCK tyrosine kinase was expressed in insect cells as an N-terminal deletion starting from amino acid 223 to the end of the protein at amino acid 509. The N-terminus of the protein also had two amino acid substitutions, P223M and C 224D. Kinases were purified using conventional chromatographic methods.
(§3) Tyrosine kinase activity was measured using a coupled, continuous spectrophotometric assay, in which production of phosphorylated poly(Glu, Tyr; 4:1) substrate and ADP is coupled to the pyruvate kinase-catalyzed transfer of a phosphate from phosphoenolpyruvate to ADP, with generation of pyruvate and regeneration of ATP. Pyruvate production is in turn coupled to the lactate dehydrogenase-catalyzed reduction of pyruvate to form lactate, with concomitant conversion of NADH to NAD+. Loss of NADH is monitored by measuring absorbance at 340 nm (see e.g., Technikova-Dobrova et al., “Spectrophotometric determination of functional characteristics of protein kinases with coupled enzymatic assay,” FEBS Letters, vol. 292 (1991), pp. 69–72). Enzyme activity was measured in the presence of 200 mM HEPES (pH 7.5), 2 mM phosphoenolpyruvate, 0.3 mM NADH, 20 mM MgCl2, 100 μM ATP, 5 mM DTT, 5.1 or 25 mM poly (Glu,Tyr) 4:1 for P-FGF or P-LCK assays, respectively, and 15 units/mL each of pyruvate kinase and lactate dehydrogenase. Phosphorylated FGF receptor kinase was present at 100 nM and phosphorylated LCK kinase was present at 50 nM. Assays were performed under initial rate conditions at 37° C., and rates were corrected for any background rate measured in the absence of enzyme. Percent inhibition was calculated relative to control enzyme assayed in the presence of 2% (v/v) DMSO.

LCK tyrosine kinase = biological target: T4, LCK tyrosine kinase (Homo sapiens, UniProt P06239, C224D/P223M); test: Inhibition of phosphorylated LCK tyrosine kinase activity; type: biochemical; conditions: read-out: LCK % Inhib. at 1 μM
T4 construct: starting from amino acid 223 to the end of the protein at amino acid 509; made in house; host or cells: insect cells
Procedure: as §1, §2, §3

HCT 116 cell line = test: Inhibition of Cell Growth (MTT tetrazolium salt assay); type: cell-based; conditions: Homo sapiens, HCT 116, MTT; for IC50: 50% inhibition of growth, read-out: HCT 116 IC50; for IC90: read-out: HCT 116 IC90
Procedure, shortened: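 HCT 116 cells in McCoy's 5A were dosed 4 h after plating, in 0.5% (v/v) DMSO, then held 4–6 days at 37 °C, 5% CO2. MTT at 0.2 mg/mL final for 4 h; DMSO-solubilized formazan read at 540 nm. IC50 taken from the linear part of a semi-log plot versus DMSO-only controls.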

FAK = test: Coupled Spectrophotometric (FAK) Assay; type: biochemical
Procedure: Coupled Spectrophotometric (FAK) Assay
Tyrosine kinase assays were monitored using a Beckman DU 650 Spectrophotometer. Production of ADP was coupled to oxidation of NADH using phosphoenolpyruvate (PEP) through the actions of pyruvate kinase (PK) and lactic dehydrogenase (LDH). The oxidation of NADH was monitored by following the decrease in absorbance at 340 nm (ε340=6.22 cm^−1 mM^−1). Typical reaction solutions contained: 1 mM PEP, 250 μM NADH, 50 units of LDH/mL, 20 units of PK/mL, 5 mM DTT, in 200 mM Hepes, pH 7.5 and varying concentrations of poly(E4Y1), ATP and MgCl2. Assays were initiated with 40 nM of […].

Sequence of CDK4/cyclin D3 (P11802 2-303 limits assumed): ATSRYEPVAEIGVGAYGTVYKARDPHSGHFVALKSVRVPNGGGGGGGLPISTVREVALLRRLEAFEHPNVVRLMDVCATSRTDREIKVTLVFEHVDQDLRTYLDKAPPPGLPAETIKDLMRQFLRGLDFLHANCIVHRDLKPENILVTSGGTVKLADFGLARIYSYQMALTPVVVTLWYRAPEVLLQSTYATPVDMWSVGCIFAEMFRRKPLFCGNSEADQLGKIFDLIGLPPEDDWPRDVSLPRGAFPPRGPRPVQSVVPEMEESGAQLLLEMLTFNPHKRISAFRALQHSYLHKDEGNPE
Sequence of CDK4/cyclin D3 (P30281 1-264 limits assumed, further chain): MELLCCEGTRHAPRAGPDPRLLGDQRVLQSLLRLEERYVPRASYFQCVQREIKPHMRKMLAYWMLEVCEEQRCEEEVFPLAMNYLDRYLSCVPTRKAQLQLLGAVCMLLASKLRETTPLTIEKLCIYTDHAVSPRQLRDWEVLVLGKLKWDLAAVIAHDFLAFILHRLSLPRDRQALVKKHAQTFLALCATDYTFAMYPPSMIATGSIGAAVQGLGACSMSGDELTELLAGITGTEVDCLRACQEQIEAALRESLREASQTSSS
T3 sequence (P11362 456-766 L457V/C488A/C584S): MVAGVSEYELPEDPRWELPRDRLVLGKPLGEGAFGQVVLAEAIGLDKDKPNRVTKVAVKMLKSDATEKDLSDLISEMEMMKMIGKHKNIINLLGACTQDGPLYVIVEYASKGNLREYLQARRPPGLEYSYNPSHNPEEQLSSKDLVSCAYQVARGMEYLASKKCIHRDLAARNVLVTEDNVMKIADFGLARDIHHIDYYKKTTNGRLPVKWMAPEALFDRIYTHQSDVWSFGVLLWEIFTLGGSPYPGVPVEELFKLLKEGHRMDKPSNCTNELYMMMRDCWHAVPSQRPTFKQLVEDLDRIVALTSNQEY
T4 sequence (P06239 223-509 P223M/C224D): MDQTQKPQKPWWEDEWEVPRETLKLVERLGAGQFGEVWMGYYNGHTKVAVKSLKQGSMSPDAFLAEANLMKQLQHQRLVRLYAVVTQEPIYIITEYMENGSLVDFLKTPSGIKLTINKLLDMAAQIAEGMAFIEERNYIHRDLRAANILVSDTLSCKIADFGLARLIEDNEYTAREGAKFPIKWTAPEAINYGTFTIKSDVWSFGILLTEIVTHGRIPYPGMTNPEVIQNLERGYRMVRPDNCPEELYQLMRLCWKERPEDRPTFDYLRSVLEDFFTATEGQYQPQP

Row | SMILES | Ki (human CHK1) | Ki (CDK2/cyclin A) | Ki (CDK4/cyclin D3) | inhibition at 1 µM (FGFR1 tyrosine kinase) | inhibition at 1 µM (LCK tyrosine kinase) | inhibition at 20 µM (human CHK1) | melting point | IC50 (HCT 116 cell line) | IC90 (HCT 116 cell line) | Ki (FGFR1 tyrosine kinase) | FAK % Inhibition at 1 μM (FAK)
1 | Clc1ccncc1-c1ccc2[nH]nc(/C=C/c3ccccc3)c2c1 [Example 42, 5-(4-Chloro-pyridin-3-yl)-3-(E)-styryl-1H-indazole] |  | 17.2 nM | 8.2 nM | 70.3% |  |  |  | 3000 nM | 5000 nM |  | 78%
2 | OC1CCN(c2ccc3[nH]nc(/C=C/c4ccccc4)c3c2)CC1 [Example 27, 1-[3-((E)Styryl)-1H-indazol-5-yl]-piperidin-4-ol] |  | 1600 nM | 1500 nM |  |  |  |  |  |  |  | 44%
3 | C(=C\c1n[nH]c2ccc(-c3ccccc3)cc12)/c1ccccc1 [Example 1, 5-Phenyl-3-Styryl-1H-Indazole] | 6700 nM | 11000 nM | 1700 nM |  |  |  |  |  |  |  | 32%
4 | Nc1ccc2[nH]nc(-c3ccc[nH]3)c2c1 [Example 84, 5-Amino-3-(2-Pyrrolyl)-1H-indazole] | 22500 nM | 28000 nM | 34000 nM |  |  |  |  |  |  |  | 
5 | Nc1cccc2c(-c3ccc4[nH]nc(/C=C/c5ccccc5)c4c3)cncc12 [Example 45] |  | 17 nM | 12 nM | 58.7% |  |  |  | 2100 nM | 5000 nM |  | 63%
6 | OC1CCCN(c2ccc3[nH]nc(/C=C/c4ccccc4)c3c2)C1 (stereo not shown) [Example 28, 1-[3-((E)Styryl)-1H-indazol-5-yl]-piperidin-3-ol] |  | 720 nM | 680 nM |  |  |  |  |  |  |  | 61%

Second part, led by results:

Row | Ki (human CHK1) | Ki (CDK2/cyclin A) | Ki (CDK4/cyclin D3) | inhibition at 1 µM (FGFR1 tyrosine kinase) | inhibition at 1 µM (LCK tyrosine kinase) | inhibition at 20 µM (human CHK1) | melting point | IC50 (HCT 116 cell line) | IC90 (HCT 116 cell line) | Ki (FGFR1 tyrosine kinase) | SMILES | FAK % Inhibition at 1 μM (FAK)
7 | 8550 nM | 49 nM | 237 nM | 54% | 23% |  |  |  |  |  | Cc1c(O)cccc1-c1ccc2[nH]nc(-c3nc4c(O)cccc4[nH]3)c2c1 [Example 21, 2-[5-(3-Hydroxy-2-methyl-phenyl)-1H-indazol-3-yl]-1H-benzoimidazol-4-ol] | 
8 |  | 690 nM | 480 nM |  |  | 56% |  |  |  |  | COc1cccc(-c2ccc3[nH]nc(-c4nc5ccccc5[nH]4)c3c2)c1 [Example 5, 3-(1H-Benzoimidazol-2-yl)-5-(3-methoxyphenyl)-1H-indazole] | 
9 |  | 240 nM | 370 nM |  |  | 75% | 80 to 82 °C |  |  |  | c1ccc(-c2ccc3[nH]nc(-c4nc5ccccc5[nH]4)c3c2)cc1 [Example 3, 3-(1H-Benzoimidazol-2-yl)-5-Phenyl-1H-indazole] | 
10 |  | 41 nM | 65 nM |  |  |  |  | 4000 nM | 5000 nM | 800 nM | Cc1c(O)cccc1-c1ccc2[nH]nc(-c3nc4c(CO)cccc4[nH]3)c2c1 [Example 23, 3-[3-(4Hydroxymethyl-1H-benzoimidazol-2-yl)-1H-indazol-5-yl]-2-methyl-phenol] | 
11 |  | 49 nM | 95 nM | 86.7% |  |  |  | 2300 nM | 4800 nM |  | Oc1ccc(F)c(-c2ccc3[nH]nc(-c4nc5ccccc5[nH]4)c3c2)c1F [Example 49, 3-[-3-(1H-Benzoimidazol-2-yl)-1H-indazol-5-yl]-2,4-difluoro-phenol] | 
12 |  | 94 nM | 15 nM | 93.5% |  |  |  | 5000 nM | 5000 nM |  | Cc1c(-c2ccc3[nH]nc(/C=C/c4ccccc4)c3c2)ccc(CCCO)c1O [Example 22, 6-(3-Hydroxy-propyl)-2-methyl-3-[3-((E)-styryl)-1H-indazol-5-yl]-phenol] | 

From patent US7232912B2, “Indazole compounds, pharmaceutical compositions, and methods for mediating or inhibiting cell proliferation” (Agouron Pharmaceuticals, Inc., priority 2000, dated 2007)
